From patent US20120095062A1, “TRICYCLIC COMPOUNDS, COMPOSITIONS, AND METHODS” (Pfizer Inc., priority 2007, published 2012) come the findings set out here.

Structures can show the parent of a compound that is named as a salt. Where two headings read alike, the source gives them in different places.

Experiment [1] has as its system IL-6, Human A549 lung epithelial cells. Nature of the experiment: IL-6 inhibition in IL-1β-stimulated A549 cells. Type of experiment: cell-based. Conditions: for IC50: A549, 20 h, A549 cells, 1 ng/mL IL-1β, 20 hours, read-out: IL-6 IC50; for inhibition: A549, A549 cells, Prednisolone (1 μM) = 100% inhibition control. On the procedure: Human A549 lung epithelial cells (American Type Culture Collection, Rockville, Md.) were cultured in Kaighn's F-12K medium with penicillin-streptomycin (10 U/mL) and 10% heat-inactivated fetal bovine serum (all from Invitrogen, Grand Island, N.Y.). A549 cells were plated at a density of 30,000 cells/well in 96-well plates and incubated overnight at 37° C. and with 5% CO2. The cells were serum-starved by replacing the growth medium with serum-free Kaighn's F-12K medium with penicillin-streptomycin (10 U/mL) and, again, incubating overnight at 37° C. and with 5% CO2. On the third day, the medium was replaced with fresh serum-free medium and the cells were incubated with or without compound (vehicle was DMSO at 0.1% maximum concentration) for approximately 1 hour and then stimulated with 1 ng/mL recombinant human IL-1β (R&D Systems, Minneapolis, Minn.) for 20 hours at 37° C. and with 5% CO2. Cell supernatants were collected for determination of IL-6 levels using MSD (Meso Scale Discovery, Gaithersburg, Md.) 96-well Single Spot plates as per the manufacturer's instructions. Plates were read with an MSD Sector Imager 6000. […] Vehicle was used to define the 0% inhibition control. Percent inhibition for each compound concentration, relative to these controls, was calculated using Excel (Microsoft, Redmond, Wash.). IC50 values were generated using GraFit 5.0 data analysis software (Erithacus Software Ltd., Surrey, UK).

A further experiment concerns LPS-induced serum TNFα. Nature of the experiment: LPS-induced serum TNFα suppression, 28-day repeat dose mouse model. Type of experiment: in vivo. Particulars: 672 h, mice, oral gavage 28 days.
In another experiment the test system is Serum osteocalcin. Nature of the experiment: Serum osteocalcin suppression, 28-day repeat dose mouse model. Particulars: Mus musculus, 672 h; mice, oral gavage 28 days, serum osteocalcin. Format: in vivo, mice.
The next experiment deals with TNFα, U937 cells. Nature of the experiment: TNFα inhibition in LPS-stimulated differentiated U937 cells. More on the design: inhibition: dose or concentration left out as unconfirmed. Particulars: Homo sapiens. Type of experiment: cell-based. The procedure:
Cells were differentiated to a monocyte/macrophage phenotype with phorbol 12-myristate 13-acetate (Sigma-Aldrich, St. Louis, Mo.), 20 ng/mL, overnight. […] Following recovery, the cells were scraped, counted, and plated in accordance to the experimental design prior to stimulation with LPS, as described below. U937 cells were differentiated and plated at a density of 200,000 cells/well in 96-well plates. […] Louis, Mo.) for four hours at 37° C. and with 5% CO2. Cell supernatants were collected for determination of TNFα levels using an in-house sandwich-type ELISA. Mouse anti-human TNFα monoclonal antibody (clone 28401.111) and biotinylated goat anti-human TNFα (R&D Systems, Minneapolis, Minn.) were used as the capture and detection antibodies, respectively. Streptavidin-horseradish peroxidase (HRP) (R&D Systems, Minneapolis, Minn.) and K-Blue Substrate/Red Stop (Neogen, Lexington, Ky.) were used as the detection system. Absorbance was measured at 650 nm. TNFα concentrations were interpolated from a human TNFα recombinant protein (R&D Systems, Minneapolis, Minn.) standard curve using a four parameter logistics model by Magellan 4.11 data analysis software (Tecan, Durham, N.C.). […] Vehicle was used to define the 0% inhibition control. Percent inhibition for each concentration of compound, relative to these controls, was calculated using Excel (Microsoft, Redmond, Wash.).

The test system of a further experiment is TNFα. Nature of the experiment: Ex vivo LPS-stimulated human whole blood, TNFα production. Type of experiment: cell-based. Particulars: mean. On the procedure: (§1) Venous blood from human donors was collected as 10 ml aliquots in tubes containing sodium heparin (BD Vacutainer from Becton Dickinson and Company, Franklin Lakes, N.Y.). Blood was added to sterile polystyrene round bottom 96-well tissue culture plates (Corning Costar) at 100 μl/well, omitting the outside wells. Media (RPMI Medium 1640 with L-glutamine, Invitrogen Corporation, Carlsbad, Calif.) was added to the blood in 90 μl aliquots for a total volume of 190 μl. Outside wells were filled with 200 μl of media. Blood was placed in a humidified 37° C. incubator with 5% CO2 while compounds were prepared (nearly 60 minutes).
(§2) Compounds were prepared from 10 mM stock solutions in dimethylsulfoxide (DMSO, Sigma-Aldrich). […] Final DMSO and ethanol concentrations in the assay were 0.1% and 1.5%. The samples were gently triturated twice to mix and replaced in the incubator. LPS stock (E. coli serotype 0111:84, Sigma-Aldrich), stored in aliquots of 100 μg/ml in RPMI at −20° C., was diluted 1/50 in RPMI to make a working stock solution. After 60 minutes of incubation, 10 μl of the prepared LPS working stock was added to the blood to a final concentration of 100 ng/ml, omitting wells to be used as negative control. The samples were again gently triturated and the plates incubated overnight for 22 hours. Following incubation, the blood was centrifuged at 1500×g for 5 minutes and the plasma removed to either freeze at −20° C. or assay for cytokine release.
(§3) IL-1β, IFNγ,IL-6, and TNFα protein levels were measured using Meso Scale assay kits (Meso Scale Discovery, Gaithersburg, Md.). Reagents were allowed to come to room temperature. Meso Scale plates were blocked with […] of human plasma/serum assay diluent with gentle shaking for 60 minutes at room temperature. Plates were washed 3× with wash buffer (PBS, Invitrogen Corporation, with 0.05% Tween-20, Sigma-Aldrich). Calibrators for standard curves were prepared in human plasma/serum assay diluent as a 1/5 serial dilution to achieve final concentrations ranging from 50000 pg/ml to 3.2 pg/ml. Samples and calibrators were added at 20 μl/well, then incubated at room temperature with gentle shaking for 90 minutes. Plates were again washed 3 times with wash buffer. Detection antibody was diluted in human plasma/serum antibody diluent to 1 μg/ml and added to the plate at 20 μl/well. Plates were incubated as before for 60 minutes and washed again. Read Buffer T (4×) was diluted 1:1 with mqH2O to 2 times concentration and 150 μl added to each well. Plates were analyzed on the SECTOR Imager 6000 (Meso Scale Discovery) to generate raw signal values.
Individual values were compared to positive and negative controls (vehicle treated blood with LPS and vehicle treated blood without LPS, respectively) to generate % inhibition. Triplicate values were averaged for each donor. The values for two donors were averaged (only one donor was used for IL-1β) and graphed using 4-parameter fit curves in the GraFit 5.0.11 application.

The subject of the next experiment is IL-6. Nature of the experiment: Ex vivo LPS-stimulated human whole blood, IL-6 production. Conditions: mean. Type of experiment: cell-based. On the procedure: as §1, §2, §3
(§4) IL-1β, IFNγ, IL-6, and TNFα sample values were verified to be within the calibrator standard curves. Individual values were compared to positive and negative controls (vehicle treated blood with LPS and vehicle treated blood without LPS, respectively) to generate % inhibition. Triplicate values were averaged for each donor. The values for two donors were averaged (only one donor was used for IL-1β) and graphed using 4-parameter fit curves in the GraFit 5.0.11 application.

Another experiment concerns IFNγ. Nature of the experiment: Ex vivo LPS-stimulated human whole blood, IFNγ production. Type of experiment: cell-based. Conditions: mean. The procedure:
as §1, §2, §3, §4

The next experiment concerns IL-1β. Nature of the experiment: Ex vivo LPS-stimulated human whole blood, IL-1β production. Type of experiment: cell-based. Particulars: one donor. The procedure:
as §1, §2, §3, §4

Where [2] appears, read: U-937, 4 h, U937 cells, 100 ng/mL LPS, four hours, read-out: TNFα IC50.

The IC50 is the point on the concentration scale where inhibition reaches its midpoint. Usually inhibition stands for the change of the read-out against control, counted positive when it falls. As a reminder, the ED50 is the dose at which the effect has come halfway, by size or by number of responders. For `Cc1c(NC(=O)c2ccc3c(c2)CC[C@@H]2C[C@@](O)(C(F)(F)F)CC[C@@]32Cc2ccccc2)ccc[n+]1[O-]` [Comparator G], in experiment [1], the half-inhibitory concentration (IC50) is 2.1 nM and the inhibition was 80.1%. Further, the median effective dose (ED50) in the experiment on LPS-induced serum TNFα turned out to be 2.9 mg/kg. Besides, the ED50 with Serum osteocalcin amounted to 1.12 mg/kg.

Regarding `Cc1ncccc1NC(=O)c1ccc2c(c1)CC[C@@H]1C[C@@](O)(C(F)(F)F)CC[C@@]21Cc1ccccc1` [Example 1 HCL salt, (4βS,7R,8αR)-4β-benzyl-7-hydroxy-N-(2-methylpyridin-3-yl)-7-(trifluoromethyl)-4β,5,6,7,8,8α,9,10-octahydrophenanthrene-2-carboxamide], the inhibition in the experiment on TNFα, U937 cells (U-937) worked out at 77.1%; in experiment [1], 76.9%. Further, the 50% inhibitory concentration (IC50) in the experiment with TNFα, U937 cells (setting [2]) was 92.1 nM; with TNFα, U937 cells (U-937, value in brackets, footnote a: additional results that were found, read-out: TNFα IC50 (nM), additional result), 28.8 nM; in experiment [1] it was 0.4 nM.

As for `Cc1ncccc1NC(=O)c1ccc2c(c1)CC[C@@H]1C[C@@](O)(C(F)F)CC[C@@]21Cc1ccccc1` [Comparator H, (4βS,7R,8αR)-4β-benzyl-7-(difluoromethyl)-7-hydroxy-N-(2-methylpyridin-3-yl)-4β,5,6,7,8,8α,9,10-octahydrophenanthrene-2-carboxamide], the IC50 in experiment [1] turned out to be 4.3 nM. In addition, the inhibition in experiment [1] worked out at 64.9%. The ED50 is 0.23 mg/kg with LPS-induced serum TNFα and 0.51 mg/kg with Serum osteocalcin.

`Cc1ccncc1NC(=O)c1ccc2c(c1)CC[C@@H]1C[C@@](O)(C(F)(F)F)CC[C@@]21Cc1ccccc1` [Comparator D, (4βS,7R,8αR)-4β-benzyl-7-hydroxy-N-(4-methylpyridin-3-yl)-7-(trifluoromethyl)-4β,5,6,7,8,8α,9,10-octahydrophenanthrene-2-carboxamide]: in experiment [1], the concentration for half-maximal inhibition (IC50) was found to be 1.3 nM. Besides, the inhibition in experiment [1] is 79.8%. For the same molecule, the median effective dose (ED50) in the experiment on LPS-induced serum TNFα amounted to 1.47 mg/kg; in the experiment with Serum osteocalcin it was 1.18 mg/kg.

`Cc1ncccc1NC(=O)c1ccc2c(c1)CC[C@@H]1C[C@@](OP(=O)(O)O)(C(F)(F)F)CC[C@@]21Cc1ccccc1` [Example 2, (2R,4αS,10αR)-4α-benzyl-7-((2-methylpyridin-3-yl)carbamoyl)-2-(trifluoromethyl)-1,2,3,4,4α,9,10α-octahydrophenanthren-2-yl dihydrogen phosphate]: the IC50 in experiment [1] stood at 60 nM.

Turning to `Cc1ncccc1CNC(=O)c1ccc2c(c1)CC[C@@H]1C[C@@](O)(CCC(F)(F)F)CC[C@@]21Cc1ccccc1` [Comparator A, (4βS,7S,8αR)-4β-benzyl-7-hydroxy-N-((2-methylpyridin-3-yl)methyl)-7-(3,3,3-trifluoropropyl)-4β,5,6,7,8,8α,9,10-octahydrophenanthrene-2-carboxamide], the inhibition in the experiment on TNFα, U937 cells (U-937) stood at 35%; in experiment [1], 59.9%. Besides, the IC50 is > 1000 nM with TNFα, U937 cells (setting [2]) and > 36.4 nM in experiment [1]. For the same molecule, the inhibition at 0.00137174 µM came out at 18.1% in the experiment on TNFα (1.371742 nM), 1.46% in the experiment on IL-6 (1.371742 nM), 18.1% with IFNγ (1.371742 nM) and 32% with IL-1β (1.371742 nM). Moreover, the inhibition at 0.00411523 µM in the experiment with TNFα (4.115226 nM) is -0.861%; with IL-6 (4.115226 nM) it was -4.34%; in the experiment with IFNγ (4.115226 nM) it was -1.7%; in the experiment on IL-1β (4.115226 nM) it was 22%. For the same molecule, the inhibition at 0.0123457 µM in the experiment with TNFα (12.34568 nM) was 0.0309%; with IL-6 (12.34568 nM), -1.13%; with IFNγ (12.34568 nM), 0.016%; with IL-1β (12.34568 nM), 22.8%. Moreover, the inhibition at 0.037037 µM with TNFα (37.03704 nM) was -4.19%; in the experiment with IL-6 (37.03704 nM), -3.52%; in the experiment with IFNγ (37.03704 nM) it was -9.81%; in the experiment with IL-1β (37.03704 nM), 17.3%. The inhibition at 0.111111 µM is -3.82% in the experiment on TNFα (111.1111 nM), -3.5% with IL-6 (111.1111 nM), 8.74% in the experiment with IFNγ (111.1111 nM) and 8.6% in the experiment with IL-1β (111.1111 nM). Also, the inhibition at 0.333333 µM in the experiment with TNFα (333.3333 nM) was -4.61%; in the experiment with IL-6 (333.3333 nM), -2.83%; in the experiment on IFNγ (333.3333 nM), -6.32%; with IL-1β (333.3333 nM) it was 12.2%. The inhibition at 1 µM with TNFα (1000 nM) is -5.44%; in the experiment on IL-6 (1000 nM), -0.89%; in the experiment with IFNγ (1000 nM) it was 16.5%; with IL-1β (1000 nM), 15%. The inhibition at 3 µM with TNFα (3000 nM) is -3.04%; with IL-6 (3000 nM) it was -1.97%; in the experiment with IFNγ (3000 nM), 28%; in the experiment with IL-1β (3000 nM) it was 16.4%. Besides, the ED50 in the experiment with LPS-induced serum TNFα is 60 mg/kg; with Serum osteocalcin, 37 mg/kg.
